Assay results reported in patent US11542297B2, “Compositions and methods for treating CNS disorders” (Sage Therapeutics, Inc., priority 2014, dated 2023).

Legend:
[1] = target: rat brain cortical membranes ([35S]-TBPS binding, GABA receptor complex); assay: Steroid inhibition of [35S]-TBPS binding; details: in the presence of 5 μM GABA, read-out: 35S-TBPS Radioligand Displacement (IC50)
Protocol: TBPS binding assays using rat brain cortical membranes in the presence of 5 μM GABA has been described (Gee et al, J. Pharmacol. Exp. Ther. 1987, 241, 346-353; Hawkinson et al, Mol. Pharmacol. 1994, 46, 977-985; Lewin, A. H et al., Mol. Pharmacol. 1989, 35, 189-194).
Briefly, cortices are rapidly removed following decapitation of carbon dioxide-anesthetized Sprague-Dawley rats (200-250 g). The cortices are homogenized in 10 volumes of […] using a glass/teflon homogenizer and centrifuged at 1500×g for 10 min at 4° C. The resultant supernatants are centrifuged at 10,000×g for 20 min at 4° C. to obtain the P2 pellets. The P2 pellets are resuspended in 200 mM NaCl/50 mM Na—K phosphate pH 7.4 buffer and centrifuged at 10,000×g for 10 min at 4° C. This washing procedure is repeated twice and the pellets are resuspended in 10 volumes of buffer. Aliquots (100 μL) of the membrane suspensions are incubated with 3 nM [^35S]-TBPS and 5 μL aliquots of test drug dissolved in dimethyl sulfoxide (DMSO) (final 0.5%) in the presence of 5 μM GABA. The incubation is brought to a final volume of 1.0 mL with buffer. […] Following a 90 min incubation at room temp, the assays are terminated by filtration through glass fiber filters (Schleicher and Schuell No. 32) using a cell harvester (Brandel) and rinsed three times with ice-cold buffer. Filter bound radioactivity is measured by liquid scintillation spectrometry. Non-linear curve fitting of the overall data for each drug averaged for each concentration is done using Prism (GraphPad).
Various compounds are or can be screened to determine their potential as modulators of [^35S]-TBPS binding in vitro. These assays are or can be performed in accordance with the above discussed procedures.

α1β2γ2 GABAA receptors = α1β2γ2 GABAA receptors (Homo sapiens (Human), UniProt P14867+P47870); assay: Patch clamp electrophysiology of recombinant α1β2γ2 GABAA receptors (Qpatch in Ltk cells); assay type: cell-based; details: 10 μM test article, potentiation of GABA EC20 (2 μM) current
Protocol: Cellular electrophysiology is used to measure the pharmacological properties of our GABAA receptor modulators in heterologous cell systems. […] LTK cells are stably transfected with the α1β2γ2 subunits of the GABA receptor and CHO cells are transiently transfected with the α4β3δ subunits via the Lipofecatamine method. Cells were passaged at a confluence of about 50-80% and then seeded onto 35 mm sterile culture dishes containing 2 ml culture complete medium without antibiotics or antimycotics. Confluent clusters of cells are electrically coupled (Pritchett et al., Science, 1988, 242, 1306-1308).
Whole cell currents were measured with HEKA EPC-10 amplifiers using PatchMaster software or by using the high throughput QPatch platform (Sophion). […] In some cases 0.005% cremophor was also added. Intracellular (pipette) solution contained: KCl 130 mM, MgCl2 1 mM, Mg-ATP 5 mM, HEPES 10 mM, EGTA 5 mM, pH 7.2. […] For manual patch clamp recordings, cell culture dishes were placed on the dish holder of the microscope and continuously perfused (1 ml/min) with bath solution. […] For experiments using the QPatch system, cells were transferred as suspension to the QPatch system in the bath solution and automated whole cell recordings were performed.
Cells were voltage clamped at a holding potential of −80 mV. […]

In the case of `CC(C)(C(=O)[C@H]1CC[C@H]2[C@@H]3CC[C@H]4C[C@](C)(O)CC[C@]4(C)[C@H]3CC[C@]12C)n1nnc2ccccc21` [Compound 102, 2-(1H-benzo[d][1,2,3]triazol-1-yl)-1-((3R,5S,8R,9S,10S,13S,14S,17S)-3-hydroxy-3,10,13-trimethylhexadecahydro-1H-cyclopenta[a]phenanthren-17-yl)-2-methylpropan-1-one], the IC50 [1] is reported as over 500 nM.

Compound `C[C@@]1(O)CC[C@@]2(C)[C@@H](CC[C@@H]3[C@@H]2CC[C@]2(C)[C@@H](C(=O)Cn4nc5cccc(F)c5n4)CC[C@@H]32)C1` [Compound 246] has an IC50 [1] of under 10 nM.

Compound `CN(C)C(=O)c1cnn(CC(=O)[C@H]2CC[C@H]3[C@@H]4CC[C@H]5C[C@](C)(O)CC[C@]5(C)[C@H]4CC[C@]23C)c1` [Compound 86] has an IC50 [1] of under 10 nM.

In the case of `C[C@H](C(=O)[C@H]1CC[C@H]2[C@@H]3CC[C@H]4C[C@](C)(O)CC[C@]4(C)[C@H]3CC[C@]12C)n1nnc2ccccc21` [Compound 100, (R)-2-(1H-benzo[d][1,2,3]triazol-1-yl)-1-((3R,5S,8R,9S,10S,13S,14S,17S)-3-hydroxy-3,10,13-trimethylhexadecahydro-1H-cyclopenta[a]phenanthren-17-yl)propan-1-one], the IC50 [1] is reported as over 500 nM.

With `C[C@@H](C(=O)[C@H]1CC[C@H]2[C@@H]3CC[C@@H]4C[C@](C)(O)CC[C@]4(C)[C@H]3CC[C@]12C)n1nc2ccccc2n1` [Compound 61, (S)-2-(2H-benzo[d][1,2,3]triazol-2-yl)-1-((3R,5R,8R,9S,10S,13S,14S, 17S)-3-hydroxy-3,10,13-trimethylhexadecahydro-1H-cyclopenta[a]phenanthren-17-yl)propan-1-one] the IC50 [1] was 100 to 500 nM.

`C[C@@]1(O)CC[C@@]2(C)[C@H](CC[C@@H]3[C@@H]2CC[C@]2(C)[C@@H](C(=O)Cn4nc5ccc(OC(F)(F)F)cc5n4)CC[C@@H]32)C1` [Compound 106] gave an Emax at 10 µM (α1β2γ2 GABAA receptors; read-out: GABA (α1β2γ2) Qpatch in Ltk, % efficacy at 10 μM) of 100 to 500%.

With `C[C@H](C(=O)[C@H]1CC[C@H]2[C@@H]3CC[C@H]4C[C@](C)(O)CC[C@]4(C)[C@H]3CC[C@]12C)n1ccnn1` [Compound 92, (R)-1-((3R,5S,8R,9S,10S,13S,14S,17S)-3-hydroxy-3,10,13-trimethylhexadecahydro-1H-cyclopenta[a]phenanthren-17-yl)-2-(1H-1,2,3-triazol-1-yl)propan-1-one] the IC50 [1] was over 500 nM.

`C[C@H](C(=O)[C@H]1CC[C@H]2[C@@H]3CC[C@@H]4C[C@](C)(O)CC[C@]4(C)[C@H]3CC[C@]12C)n1ccnn1` [Compound 58, (R)-1-((3R,5R,8R,9S,10S,13S,14S,17S)-3-hydroxy-3,10,13-trimethylhexadecahydro-1H-cyclopenta[a]phenanthren-17-yl)-2-(1H-1,2,3-triazol-1-yl)propan-1-one] showed an IC50 [1] of over 500 nM.

With `C[C@@]1(O)CC[C@@]2(C)[C@H](CC[C@@H]3[C@@H]2CC[C@]2(C)[C@@H](C(=O)Cn4nc5ccc(S(C)(=O)=O)cc5n4)CC[C@@H]32)C1` [Compound 104, 1-((3R,5R,8R,9S,10S,13S,14S,17S)-3-hydroxy-3,10,13-trimethylhexadecahydro-1H-cyclopenta[a]phenanthren-17-yl)-2-(5-(methylsulfonyl)-2H-benzo[d][1,2,3]triazol-2-yl)ethanone] the IC50 [1] was under 10 nM.

In the case of `CSc1ccc2nnn(CC(=O)[C@H]3CC[C@H]4[C@@H]5CC[C@H]6C[C@](C)(O)CC[C@]6(C)[C@H]5CC[C@]34C)c2c1` [Compound 248], the IC50 [1] is reported as under 10 nM.

`C[C@@H](C(=O)[C@H]1CC[C@H]2[C@@H]3CC[C@@H]4C[C@](C)(O)CC[C@]4(C)[C@H]3CC[C@]12C)n1nnc2ccccc21` [Compound 63, (S)-2-(1H-benzo[d][1,2,3]triazol-1-yl)-1-((3R,5R,8R,9S,10S,13S,14S,17S)-3-hydroxy-3,10,13-trimethylhexadecahydro-1H-cyclopenta[a]phenanthren-17-yl)propan-1-one] gave an IC50 [1] of 10 to 50 nM.

In the case of `C[C@H](C(=O)[C@H]1CC[C@H]2[C@@H]3CC[C@@H]4C[C@](C)(O)CC[C@]4(C)[C@H]3CC[C@]12C)n1nccn1` [Compound 56, (R)-1-((3R,5R,8R,9S,10S,13S,14S,17S)-3-hydroxyl-3,10,13-trimethylhexadecahydro-1H-cyclopenta[a]phenanthren-17-yl)-2-(2H-1,2,3-triazol-2-yl)propan-1-one], the IC50 [1] is reported as 50 to 100 nM.

With `C[C@@]1(O)CC[C@@]2(C)[C@@H](CC[C@@H]3[C@@H]2CC[C@]2(C)[C@@H](C(=O)Cn4nnc5ccc(Cl)c(F)c54)CC[C@@H]32)C1` [Compound 113] the “GABA (α1β2γ2) Qpatch in Ltk, % efficacy at 10 μM” value (α1β2γ2 GABAA receptors) was “B (“B” >100-500)”.

In the case of `C[C@@H](C(=O)[C@H]1CC[C@H]2[C@@H]3CC[C@H]4C[C@](C)(O)CC[C@]4(C)[C@H]3CC[C@]12C)n1cc(C#N)cn1` [Compound 81, 1-((S)-1-((3R,5S,8R,9S,10S,13S,14S,17S)-3-hydroxy-3,10,13-trimethylhexadecahydro-1H-cyclopenta[a]phenanthren-17-yl)-1-oxopropan-2-yl)-1H-pyrazole-4-carbonitrile], the IC50 [1] is reported as 10 to 50 nM.

In the case of `C[C@H](C(=O)[C@H]1CC[C@H]2[C@@H]3CC[C@H]4C[C@](C)(O)CC[C@]4(C)[C@H]3CC[C@]12C)n1cc(C#N)cn1` [Compound 80, 1-((R)-1-((3R,5S,8R,9S,10S,13S,14S,17S)-3-hydroxy-3,10,13-trimethylhexadecahydro-1H-cyclopenta[a]phenanthren-17-yl)-1-oxopropan-2-yl)-1H-pyrazole-4-carbonitrile], the IC50 [1] is reported as 100 to 500 nM.

`C[C@@]1(O)CC[C@@]2(C)[C@H](CC[C@@H]3[C@@H]2CC[C@]2(C)[C@@H](C(=O)Cn4cc(C#N)cn4)CC[C@@H]32)C1` [Compound 10, 1-(2-((3R,5R,8R,9S,10S,13S,14S,17S)-3-hydroxy-3,10,13-trimethylhexadecahydro-1H-cyclopenta[a]phenanthren-17-yl)-2-oxoethyl)-1H-pyrazole-4-carbonitrile] was tested, and the IC50 [1] was under 10 nM.

Compound `CC(C(=O)[C@H]1CC[C@H]2[C@@H]3CC[C@H]4C[C@](C)(O)CC[C@]4(C)[C@H]3CC[C@]12C)N1CCOCC1` (stereo partly drawn) [Compound 155] has an IC50 [1] of over 500 nM.

`C[C@H](C(=O)[C@H]1CC[C@H]2[C@@H]3CC[C@H]4C[C@](C)(O)CC[C@]4(C)[C@H]3CC[C@]12C)n1nccn1` [Compound 90, (R)-1-((3R,5S,8R,9S,10S,13S,14S,17S)-3-hydroxy-3,10,13-trimethylhexadecahydro-1H-cyclopenta[a]phenanthren-17-yl)-2-(2H-1,2,3-triazol-2-yl)propan-1-one] showed an IC50 [1] of over 500 nM.
